# According to US9980943B2, “Methods of treating muscular dystrophy” (BOARD OF REGENTS OF THE NEVADA SYSTEM OF HIGHER EDUCATION, …, priority 2013, dated 2018):
# Key:
# Assay type in all cases: cell-based, mouse
# [1] = system: β-galactosidase in CMV-LacZ C2C12 myoblasts; test: CMV-LacZ secondary screen in C2C12 myoblasts (β-Gal stabilizing assay); conditions: CMV-LacZ C2C12 myoblasts
# Procedure, shortened: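 Dose-response runs at 0.5–40 μM (0.5, 1, 5, 10, 20, 40 μM; N=2 per point) used a clonal C2C12 line carrying CMV-LacZ. Cells were assayed as myoblasts or as differentiated myotubes, and β-galactosidase levels were read with the FDG fluorogenic substrate.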
# [2] = system: β-galactosidase in CMV-LacZ C2C12 myotubes; test: CMV-LacZ secondary screen in C2C12 myotubes (β-Gal stabilizing assay); conditions: C2C12 CMV-LacZ myotubes, fold relative to DMSO
# Procedure, shortened: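 β-gal stabilization was measured in C2C12 myoblasts or myotubes stably transfected with a CMV-driven LacZ construct, using the FDG β-gal assay. Compounds were tested in dose-response at 0.5, 1, 5, 10, 20 and 40 μM, with two replicates per point.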
# [3] = system: α7 integrin (LacZ reporter in α7+/LacZ myotubes); test: Myotube α7 integrin FDG assay (Burkin assay in myotubes, 96-well); conditions: myotubes
# [4] = system: α7 integrin (LacZ reporter in α7βgal+/− myoblasts); test: Myoblast α7+/LacZ integrin FDG assay (Burkin assay in myoblasts, 96-well); conditions: α7+/LacZ myoblasts, 96-well
Structure (SMILES),CMV-LACZ in Myoblasts (β-galactosidase activity relative to DMSO) ([1]; 0.5 uM),CMV-LACZ in Myoblasts (β-galactosidase activity relative to DMSO) ([1]; 1 uM),CMV-LACZ in Myoblasts (β-galactosidase activity relative to DMSO) ([1]; 5 uM),CMV-LACZ in Myoblasts (β-galactosidase activity relative to DMSO) ([1]; 10 uM),CMV-LACZ in Myoblasts (β-galactosidase activity relative to DMSO) ([1]; 20 uM),CMV-LACZ in Myoblasts (β-galactosidase activity relative to DMSO) ([1]; 40 uM),"CMV-LACZ in Myotubes, signal relative to DMSO ([2]; 0.5 uM)","CMV-LACZ in Myotubes, signal relative to DMSO ([2]; 1 uM)","CMV-LACZ in Myotubes, signal relative to DMSO ([2]; 5 uM)","CMV-LACZ in Myotubes, signal relative to DMSO ([2]; 10 uM)","CMV-LACZ in Myotubes, signal relative to DMSO ([2]; 20 uM)","CMV-LACZ in Myotubes, signal relative to DMSO ([2]; 40 uM)","Burkin Assay in Myotubes, α7 integrin LacZ reporter signal relative to DMSO ([3]; 0.5 uM)","Burkin Assay in Myotubes, α7 integrin LacZ reporter signal relative to DMSO ([3]; 1 uM)","Burkin Assay in Myotubes, α7 integrin LacZ reporter signal relative to DMSO ([3]; 5 uM)","Burkin Assay in Myotubes, α7 integrin LacZ reporter signal relative to DMSO ([3]; 10 uM)","Burkin Assay in Myotubes, α7 integrin LacZ reporter signal relative to DMSO ([3]; 20 uM)","Burkin Assay in Myotubes, α7 integrin LacZ reporter signal relative to DMSO ([3]; 40 uM)","Burkin Assay in Myoblasts, signal relative to DMSO ([4]; 0.5 uM)","Burkin Assay in Myoblasts, signal relative to DMSO ([4]; 1 uM)",other results
CCOc1ccccc1NC(=O)c1cccc2c1C(=O)N(C1CCCCC1)C2 [MLS000912726-01],1.1004,0.9692,1.0182,1.0325,1.0257,1.0643,0.8527,0.9264,0.9111,1.1041,1.2060,1.0150,1.066,0.8889,0.8818,0.886,0.8231,0.8237,1.279,1.177,"Burkin Assay in Myoblasts, signal relative to DMSO ([4]; 5 uM): 0.9838; Burkin Assay in Myoblasts, signal relative to DMSO ([4]; 10 uM): 1.02; Burkin Assay in Myoblasts, signal relative to DMSO ([4]; 20 uM): 1.1258; Burkin Assay in Myoblasts, signal relative to DMSO ([4]; 40 uM): 1.022"
COc1ccc(CNC(=O)C2CCCN(S(=O)(=O)c3c(C)noc3/C=C/N(C)C)C2)cc1 (stereo not drawn) [MLS000925023-01],1.0703,0.9629,0.9762,0.8397,0.5504,0.3278,0.7505,1.1333,1.1638,0.8859,1.1565,1.1106,1.16,1.24,0.8969,0.8784,0.8004,0.7318,0.996,1.035,"Burkin Assay in Myoblasts, signal relative to DMSO ([4]; 5 uM): 0.9523; Burkin Assay in Myoblasts, signal relative to DMSO ([4]; 10 uM): 0.7957; Burkin Assay in Myoblasts, signal relative to DMSO ([4]; 20 uM): 0.7765; Burkin Assay in Myoblasts, signal relative to DMSO ([4]; 40 uM): 0.4179"
O=S(=O)(NC(=NC1CCCCC1)c1ccccc1F)c1ccccc1 [MLS000947910-01],1.0094,0.9250,0.9452,1.0379,1.0870,1.0500,1.0333,0.8348,1.2332,0.8930,1.0165,1.0082,1.134,1.101,1,1.035,0.9628,0.9515,1.024,1.188,"Burkin Assay in Myoblasts, signal relative to DMSO ([4]; 5 uM): 1.033; Burkin Assay in Myoblasts, signal relative to DMSO ([4]; 10 uM): 1.0429; Burkin Assay in Myoblasts, signal relative to DMSO ([4]; 20 uM): 1.047; Burkin Assay in Myoblasts, signal relative to DMSO ([4]; 40 uM): 1.018"
CC1CCCCC1NC(=O)CSc1nnc(COc2ccc(Cl)cc2)o1 (stereo not drawn) [MLS000948055-01],0.7540,0.9674,1.0787,1.0993,0.5407,0.5522,1.0895,0.9638,1.2519,1.1022,1.2212,1.0753,1.067,1.054,0.9053,0.8264,0.98,0.7514,1.328,1.053,"Burkin Assay in Myoblasts, signal relative to DMSO ([4]; 5 uM): 1.136; Burkin Assay in Myoblasts, signal relative to DMSO ([4]; 10 uM): 0.8986; Burkin Assay in Myoblasts, signal relative to DMSO ([4]; 20 uM): 0.8213; Burkin Assay in Myoblasts, signal relative to DMSO ([4]; 40 uM): 0.5867"
CCOC(=O)C1(Cc2cccc(Cl)c2)CCCN(C(=O)CCSC)C1 (stereo not drawn) [MLS001000299-01],1.4188,1.2745,0.9901,0.8248,1.1522,1.0107,0.6411,1.3158,1.0658,0.9029,0.9544,1.0744,0.9225,1.006,0.8764,0.9163,0.793,0.5578,1.089,0.9953,"Burkin Assay in Myoblasts, signal relative to DMSO ([4]; 5 uM): 0.9552; Burkin Assay in Myoblasts, signal relative to DMSO ([4]; 10 uM): 0.975; Burkin Assay in Myoblasts, signal relative to DMSO ([4]; 20 uM): 0.9397; Burkin Assay in Myoblasts, signal relative to DMSO ([4]; 40 uM): 0.7738"
